As usually defined, the IC50 is the concentration at which inhibition is half-maximal. The low end stands for inhibition by little substance, the high end for a need for much substance.

Test [1] has as its system advanced hematological malignancies. The arrangement: method as in Foran et al., 2019. As to conditions: clinic, ref Foran et al., 2019; cited from earlier work.
Test [2] deals with mutant IDH1^R132H (Homo sapiens, UniProt O75874, R132H). Nature of the test: IDH1^R132H enzymatic assay (diaphorase/resazurin readout of NADPH). As to conditions: for Inhibition ratio (%) 50 (μM): compound at 50 μM. The class given is biochemical. As for the experimental part: This assay added into a 384-well blank plate and then incubated at room temperature for 60 min. […] Curve fitting for dose response IC50 was done using GraphPad Prism.
Sequence of mutant IDH1^R132H (O75874 whole entry R132H): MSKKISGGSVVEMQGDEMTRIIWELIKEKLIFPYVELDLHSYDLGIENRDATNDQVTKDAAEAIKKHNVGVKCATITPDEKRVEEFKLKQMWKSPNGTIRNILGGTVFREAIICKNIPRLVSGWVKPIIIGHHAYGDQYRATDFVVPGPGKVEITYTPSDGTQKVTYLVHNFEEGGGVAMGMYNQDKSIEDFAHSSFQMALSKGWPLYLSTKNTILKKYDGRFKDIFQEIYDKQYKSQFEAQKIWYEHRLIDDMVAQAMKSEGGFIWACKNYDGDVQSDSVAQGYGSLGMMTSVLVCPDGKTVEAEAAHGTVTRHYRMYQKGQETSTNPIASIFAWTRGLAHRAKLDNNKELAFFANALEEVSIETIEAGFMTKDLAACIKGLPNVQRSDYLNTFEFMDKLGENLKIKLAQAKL
These 12 ligands were submitted to determine the IC50.
On the technique in general: Resazurin is reduced to fluorescent resorufin, in cell work by metabolically active cells.

Turning to `N#Cc1ccnc(N2C(=O)CC[C@H]2C(=O)N(c2cncc(F)c2)[C@H](C(=O)NC2CC(F)(F)C2)c2ccccc2Cl)c1` [AG-120], the “total overall response rate” value in test [1] was 42%. Take `COc1ccc(C(=O)[C@@H](Cn2cncn2)[C@H](Sc2ccccc2)c2ccccc2)cc1` [AQ-714/41674992]: in test [2], the IC50 amounted to 20.8 ± 4.2 µM and the “Inhibition ratio (%) 50 (μM)” value is given as 73.30±1.90%. For `O=C1C[C@H](C(=O)N(Cc2cccc3ccccc23)c2ccccn2)CN1Cc1ccccc1` [D491-0852] the same measures were 46.9 ± 6 µM and 58.00±0.60%.

On to `CCC[C@@H]1N=C2c3ccccc3N=C(S[C@@H](CC)C(=O)Nc3cccc(Cl)c3)N2C1=O` [G568-0082], for which, in test [2], the IC50 worked out at 41.9 ± 8 µM and the “Inhibition ratio (%) 50 (μM)” value worked out at 54.30±4.30%. The corresponding values for `CCOC(=O)c1[nH]c(C)c(CN(Cc2ccccc2)C(=O)[C@@H](C)Oc2ccccc2)c1C` [G798-0506] are 38 ± 2 µM and 61.15±6.15%. Consider `O=C(NCc1ccc(C(F)(F)F)cc1)c1nnn(-c2ccccc2Cl)c1-c1cccnc1` [L806-0255], for which, in test [2], the IC50 amounted to 28.3 ± 2.5 µM and the “Inhibition ratio (%) 50 (μM)” value is recorded as 66.25±3.25%.

Consider `O=C1CS[C@@H](c2cccc(NS(=O)(=O)c3ccc4ccccc4c3)c2)N1c1ccc(F)cc1` [V010-1281], for which, in test [2], half-maximal inhibition (IC50) required 50 ± 6.4 µM and the “Inhibition ratio (%) 50 (μM)” value is reported as 60.85±2.05%. For the molecule `O=C1C[C@H](C(=O)N(CCc2ccccc2)Cc2ccccc2)CN1Cc1cccc(Br)c1` [V015-1671], in test [2], the IC50 turned out to be 23.8 ± 1.8 µM and the “Inhibition ratio (%) 50 (μM)” value was determined as 65.30±2.30%.

For the molecule `O=C(Cc1ccc(N(Cc2ccccc2)C(=O)c2cccc(F)c2)cc1)NCc1cccnc1` [V016-3750], in test [2], the IC50 came to 42.9 ± 2.8 µM and the “Inhibition ratio (%) 50 (μM)” value is 54.90±1.70%. In the case of `CN(CC(=O)N1N=C(c2ccccc2Cl)C[C@H]1c1ccc2c(c1)OCO2)C(=O)C1CCCC1` [V025-9252], in test [2], the IC50 was 45.5 ± 3.1 µM and the “Inhibition ratio (%) 50 (μM)” value stood at 59.15±3.75%.

Source of the values: PMC7686577, “Discovery of Novel IDH1 Inhibitor Through Comparative Structure-Based Virtual Screening” (Frontiers in Pharmacology, 2020).
